Results on three compounds are retold here after publication PMC3315833 (Tetrahedron, 2012).

A value given as a limit tells only on which side of the number the result lay.

A short description of series [1]: Structural stability in DMSO-d6. In kind it is physicochemical.
The subject of series [2] is MCF-7 breast cancer cells. The experiment in a line: Cytotoxicity against MCF-7 cells. The note with it: read-out: IC50, cytotoxicity against MCF-7 cells.
For series [3], the system named is HT-29 colon cancer cells. Description: Cytotoxicity against HT-29 cells. The note with it: read-out: IC50, cytotoxicity against HT-29 cells.

As to `C=C[C@]1(C)[C@H](Cl)Cc2cc(C)c3[nH]c4ccccc4c3c2[C@@H]1C#N` (relative stereo) [Compound 3, 12-epi-fischerindole W nitrile], the “structural stability in DMSO-d6” value in series [1] is recorded as “structurally unstable”.

Usually IC50 stands for the midpoint of a concentration-inhibition curve. With `C=C[C@]1(C)CC[C@H]2C(=C1C#N)c1c([nH]c3ccccc13)C2(C)C` (relative stereo) [Compound 2, deschloro 12-epi-fischerindole I nitrile], the 50% inhibitory concentration (IC50) in series [2] is > 40 µM; in series [3], 23 µM.

On to `C=C[C@]1(C)CCc2cc(C)c3[nH]c4ccccc4c3c2[C@@H]1C#N` (relative stereo) [Compound 4, deschloro 12-epi-fischerindole W nitrile], for which the “structural stability in DMSO-d6” value in series [1] is on record as “structurally unstable”.
